Experimental data from the supplement of paper PMC10307832.

Columns and labels:
Experiment in all cases: relative viability (nuclei count vs DMSO), 5 days (fraction); higher = more cells survive
EMC-BAC-2 = test system: EMC-BAC-2
Summary of the method: (§1)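 Relative viability was taken as the ratio of nuclei in treated wells to nuclei in vehicle wells. Lung cancer cell lines in 1536-well plates received compounds by pin tool one day after seeding, either one drug alone or a fixed anchor-drug dose plus five library-drug doses (not always all listed) in √10 steps. Nuclei were counted on 4× images after 5 days of treatment, and values are medians of duplicate plates.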

EPLC-272H = test system: EPLC-272H
Summary of the method: as §1

H3255 = test system: H3255
Summary of the method: as §1

HOP-62 = test system: HOP-62
Summary of the method: as §1

LCLC-97TM1 = test system: LCLC-97TM1
Summary of the method: as §1

LXF-289 = test system: LXF-289
Summary of the method: as §1

NCI-H1734 = test system: NCI-H1734
Summary of the method: as §1

NCI-H1915 = test system: NCI-H1915
Summary of the method: as §1

NCI-H1993 = test system: NCI-H1993
Summary of the method: as §1

NCI-H2009 = test system: NCI-H2009
Summary of the method: as §1

NCI-H2023 = test system: NCI-H2023
Summary of the method: as §1

NCI-H2085 = test system: NCI-H2085
Summary of the method: as §1

NCI-H2126 = test system: NCI-H2126
Summary of the method: as §1

NCI-H2347 = test system: NCI-H2347
Summary of the method: as §1

NCI-H322M = test system: NCI-H322M
Summary of the method: as §1

NCI-H647 = test system: NCI-H647
Summary of the method: as §1

NCI-H661 = test system: NCI-H661
Summary of the method: as §1

NCI-H727 = test system: NCI-H727
Summary of the method: as §1

PC-14 = test system: PC-14
Summary of the method: as §1

SK-LU-1 = test system: SK-LU-1
Summary of the method: as §1

SW 1573 = test system: SW 1573
Summary of the method: as §1

O=c1cc(N2CCOCC2)oc2c(-c3cccc4c3sc3ccccc34)cccc12 + CC(=O)c1c(C)c2cnc(Nc3ccc(N4CCNCC4)cn3)nc2n(C2CCCC2)c1=O [Palbociclib] (partner 0.5 µM)
relative viability (EMC-BAC-2; first compound 0.01 µM): 0.525 | relative viability (EMC-BAC-2; first compound 0.03162 µM): 0.541 | relative viability (EMC-BAC-2; first compound 0.1 µM): 0.55 | relative viability (EMC-BAC-2; first compound 0.3162 µM): 0.51 | relative viability (EMC-BAC-2; first compound 1 µM): 0.497 | relative viability (EPLC-272H; first compound 0.01 µM): 0.302 | relative viability (EPLC-272H; first compound 0.03162 µM): 0.31 | relative viability (EPLC-272H; first compound 0.1 µM): 0.274 | relative viability (EPLC-272H; first compound 0.3162 µM): 0.325 | relative viability (EPLC-272H; first compound 1 µM): 0.325 | relative viability (H3255; first compound 0.01 µM): 0.314 | relative viability (H3255; first compound 0.03162 µM): 0.325 | relative viability (H3255; first compound 0.1 µM): 0.306 | relative viability (H3255; first compound 0.3162 µM): 0.314 | relative viability (H3255; first compound 1 µM): 0.312 | relative viability (HOP-62; first compound 0.01 µM): 0.452 | relative viability (HOP-62; first compound 0.03162 µM): 0.451 | relative viability (HOP-62; first compound 0.1 µM): 0.451 | relative viability (HOP-62; first compound 0.3162 µM): 0.459 | relative viability (HOP-62; first compound 1 µM): 0.415 | relative viability (LCLC-97TM1; first compound 0.01 µM): 0.218 | relative viability (LCLC-97TM1; first compound 0.03162 µM): 0.194 | relative viability (LCLC-97TM1; first compound 0.1 µM): 0.241 | relative viability (LCLC-97TM1; first compound 0.3162 µM): 0.21 | relative viability (LCLC-97TM1; first compound 1 µM): 0.218 | relative viability (LXF-289; first compound 0.01 µM): 0.631 | relative viability (LXF-289; first compound 0.03162 µM): 0.59 | relative viability (LXF-289; first compound 0.1 µM): 0.593 | relative viability (LXF-289; first compound 0.3162 µM): 0.583 | relative viability (LXF-289; first compound 1 µM): 0.595 | relative viability (NCI-H1734; first compound 0.01 µM): 0.324 | relative viability (NCI-H1734; first compound 0.03162 µM): 0.342 | relative viability (NCI-H1734; first compound 0.1 µM): 0.434 | relative viability (NCI-H1734; first compound 0.3162 µM): 0.352 | relative viability (NCI-H1734; first compound 1 µM): 0.374 | relative viability (NCI-H1915; first compound 0.01 µM): 0.529 | relative viability (NCI-H1915; first compound 0.03162 µM): 0.555 | relative viability (NCI-H1915; first compound 0.1 µM): 0.61 | relative viability (NCI-H1915; first compound 0.3162 µM): 0.461 | relative viability (NCI-H1915; first compound 1 µM): 0.526 | relative viability (NCI-H1993; first compound 0.01 µM): 0.738 | relative viability (NCI-H1993; first compound 0.03162 µM): 0.6 | relative viability (NCI-H1993; first compound 0.1 µM): 0.658 | relative viability (NCI-H1993; first compound 0.3162 µM): 0.64 | relative viability (NCI-H1993; first compound 1 µM): 0.545 | relative viability (NCI-H2009; first compound 0.01 µM): 0.234 | relative viability (NCI-H2009; first compound 0.03162 µM): 0.25 | relative viability (NCI-H2009; first compound 0.1 µM): 0.22 | relative viability (NCI-H2009; first compound 0.3162 µM): 0.177 | relative viability (NCI-H2009; first compound 1 µM): 0.158 | relative viability (NCI-H2023; first compound 0.01 µM): 0.436 | relative viability (NCI-H2023; first compound 0.03162 µM): 0.325 | relative viability (NCI-H2023; first compound 0.1 µM): 0.462 | relative viability (NCI-H2023; first compound 0.3162 µM): 0.337 | relative viability (NCI-H2023; first compound 1 µM): 0.346 | relative viability (NCI-H2085; first compound 0.01 µM): 0.467 | relative viability (NCI-H2085; first compound 0.03162 µM): 0.455 | relative viability (NCI-H2085; first compound 0.1 µM): 0.492 | relative viability (NCI-H2085; first compound 0.3162 µM): 0.512 | relative viability (NCI-H2085; first compound 1 µM): 0.452 | relative viability (NCI-H2126; first compound 0.01 µM): 0.349 | relative viability (NCI-H2126; first compound 0.03162 µM): 0.339 | relative viability (NCI-H2126; first compound 0.1 µM): 0.318 | relative viability (NCI-H2126; first compound 0.3162 µM): 0.331 | relative viability (NCI-H2126; first compound 1 µM): 0.345 | relative viability (NCI-H2347; first compound 0.01 µM): 0.365 | relative viability (NCI-H2347; first compound 0.03162 µM): 0.414 | relative viability (NCI-H2347; first compound 0.1 µM): 0.445 | relative viability (NCI-H2347; first compound 0.3162 µM): 0.424 | relative viability (NCI-H2347; first compound 1 µM): 0.39 | relative viability (NCI-H322M; first compound 0.01 µM): 0.484 | relative viability (NCI-H322M; first compound 0.03162 µM): 0.472 | relative viability (NCI-H322M; first compound 0.3162 µM): 0.462 | relative viability (NCI-H322M; first compound 1 µM): 0.45 | relative viability (NCI-H647; first compound 0.01 µM): 0.392 | relative viability (NCI-H647; first compound 0.03162 µM): 0.409 | relative viability (NCI-H647; first compound 0.1 µM): 0.387 | relative viability (NCI-H647; first compound 0.3162 µM): 0.364 | relative viability (NCI-H647; first compound 1 µM): 0.314 | relative viability (NCI-H661; first compound 0.01 µM): 0.417 | relative viability (NCI-H661; first compound 0.03162 µM): 0.41 | relative viability (NCI-H661; first compound 0.1 µM): 0.375 | relative viability (NCI-H661; first compound 0.3162 µM): 0.416 | relative viability (NCI-H661; first compound 1 µM): 0.398 | relative viability (NCI-H727; first compound 0.01 µM): 0.66 | relative viability (NCI-H727; first compound 0.03162 µM): 0.6 | relative viability (NCI-H727; first compound 0.1 µM): 0.624 | relative viability (NCI-H727; first compound 0.3162 µM): 0.699 | relative viability (NCI-H727; first compound 1 µM): 0.737 | relative viability (PC-14; first compound 0.01 µM): 0.436 | relative viability (PC-14; first compound 0.03162 µM): 0.479 | relative viability (PC-14; first compound 0.1 µM): 0.541 | relative viability (PC-14; first compound 0.3162 µM): 0.581 | relative viability (PC-14; first compound 1 µM): 0.596 | relative viability (SK-LU-1; first compound 0.01 µM): 0.473 | relative viability (SK-LU-1; first compound 0.03162 µM): 0.425 | relative viability (SK-LU-1; first compound 0.1 µM): 0.368 | relative viability (SK-LU-1; first compound 0.3162 µM): 0.391 | relative viability (SK-LU-1; first compound 1 µM): 0.347 | relative viability (SW 1573; first compound 0.01 µM): 0.349 | relative viability (SW 1573; first compound 0.03162 µM): 0.436 | relative viability (SW 1573; first compound 0.1 µM): 0.408 | relative viability (SW 1573; first compound 0.3162 µM): 0.349 | relative viability (SW 1573; first compound 1 µM): 0.394
